Values joined by “and” are separate entries in the source; they are usually repeats but may differ in a detail not shown here. Equal values may be shown once. Read-outs that look alike come from different tables or passages of the source.
Key:
MEXF WM-266-4 = test: 2D cell proliferation assay (CellTiter-Blue); type: cell-based; conditions: Homo sapiens, 72 h, three days of treatment, read-out: abs. IC50
Experimental: (§1) Viability of the cells was analyzed by using the CellTiter-Blue® Cell Viability Assay (Promega), and was performed according to manufacturer's instructions. Briefly, cells were harvested from exponential phase cultures (Chapter 6.6), counted and plated in 96-well flat-bottom microtiter plates at a cell density of 4,000-60,000 cells/well in a volume of 140 μl per well. After a 24 hours recovery period, 10 μL cell culture medium (six control wells/plate) or culture medium with test compound were added (Chapter 6.2). The compounds were applied at five concentrations in full-log increments up to 100 μM in duplicate. Cultures were incubated at 37° C. and 5% CO2 in a humidified atmosphere for another three days. After three days of treatment, 20 μl/well CellTiter-Blue® reagent was added. Following incubation with CellTiter-Blue® reagent for up to four hours, fluorescence (FU) was measured by using the Enspire Multimode Plate Reader (excitation λ=570 nm, emission λ=600 nm). For calculations, the mean values of duplicate/sextuplicate (untreated control) data were used.
(§2) An assay was considered fully evaluable if the following quality control criteria were fulfilled: • control/background ratio>3.0-Z′-factor calculated within the assay plate>0.5 [7]—coefficient of variation in the growth control wells <30%
(§3) Drug effects were expressed in terms of the percentage of the fluorescence signal, obtained by comparison of the mean signal in the treated wells with the mean signal of the untreated controls (expressed by the test-versus-control value, T/C-value [%]):
(§4) IC values are reported as relative IC50 values and absolute IC50 and IC70 values. […] The absolute IC70 value gives the concentration of the test compound that achieves T/C=30%. The relative IC50 value is the concentration of test compound that gives a response halfway between the top and bottom plateau of the sigmoidal concentration-response curve (inflection point of the curve). Calculation was done by 4parameter non-linear curve fit (Oncotest Data Warehouse Software).
(§5) If an IC50 or IC70 value could not be determined within the examined dose range (because a compound was either too active or lacked activity), the lowest or highest concentration studied was used for calculation of the geometric mean value.

MAXFLB MCF7 (ER+) = test: 2D cell proliferation assay (CellTiter-Blue); type: cell-based; conditions: Homo sapiens, 72 h, three days of treatment, read-out: abs. IC50
Experimental: as §1, §2, §3, §4, §5

LEXFAL MOLT-4 = test: 2D cell proliferation assay (CellTiter-Blue); type: cell-based; conditions: Homo sapiens, 72 h, three days of treatment, read-out: abs. IC50
Experimental: as §1, §2, §3, §4, §5

LXFL NCl-H1299 = test: 2D cell proliferation assay (CellTiter-Blue); type: cell-based; conditions: 72 h, three days of treatment, read-out: abs. IC50
Experimental: as §1, §2, §3, §4, §5

LEXFAM MV4-11 = test: 2D cell proliferation assay (CellTiter-Blue); type: cell-based; conditions: Homo sapiens, 72 h, three days of treatment, read-out: abs. IC50
Experimental: as §1, §2, §3, §4, §5

MAXFTN MDA-MB-231 (ER−) = test: 2D cell proliferation assay (CellTiter-Blue); type: cell-based; conditions: Homo sapiens, 72 h, three days of treatment, read-out: abs. IC50
Experimental: as §1, §2, §3, §4, §5

LXFA A549 = test: 2D cell proliferation assay (CellTiter-Blue); type: cell-based; conditions: Homo sapiens, 72 h, three days of treatment, read-out: abs. IC50
Experimental: as §1, §2, §3, §4, §5

MAXFTN ZR-75-1 (ER+) = test: 2D cell proliferation assay (CellTiter-Blue); type: cell-based; conditions: Homo sapiens, 72 h, three days of treatment, read-out: abs. IC50
Experimental: as §1, §2, §3, §4, §5

CDK4-CYCLIND1 = CDK4-CYCLIND1 (Homo sapiens, UniProt P11802); test: CDK inhibition assay (microfluidic LabChip, IC50 format)
Chain of CDK4-CYCLIND1 (P11802 whole entry): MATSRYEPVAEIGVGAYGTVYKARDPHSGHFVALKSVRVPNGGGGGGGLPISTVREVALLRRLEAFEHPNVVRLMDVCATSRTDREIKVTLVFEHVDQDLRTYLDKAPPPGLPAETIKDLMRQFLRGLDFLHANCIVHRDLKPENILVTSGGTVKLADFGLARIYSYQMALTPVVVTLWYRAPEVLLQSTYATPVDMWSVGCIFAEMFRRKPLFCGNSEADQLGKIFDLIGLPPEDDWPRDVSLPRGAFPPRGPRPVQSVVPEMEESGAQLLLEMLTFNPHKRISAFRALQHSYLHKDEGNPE
Chain of CDK4-CYCLIND1 (P24385 whole entry partner): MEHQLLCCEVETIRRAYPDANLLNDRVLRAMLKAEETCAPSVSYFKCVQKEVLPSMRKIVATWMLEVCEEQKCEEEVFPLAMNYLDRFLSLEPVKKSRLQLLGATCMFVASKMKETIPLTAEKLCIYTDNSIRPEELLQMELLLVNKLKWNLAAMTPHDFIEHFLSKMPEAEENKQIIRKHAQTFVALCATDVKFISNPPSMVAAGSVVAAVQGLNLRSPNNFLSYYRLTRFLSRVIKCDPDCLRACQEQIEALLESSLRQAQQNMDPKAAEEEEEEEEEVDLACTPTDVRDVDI

CDK2-CYCLINE = biological target: T1, CDK2-CYCLINE (Homo sapiens, UniProt P24941); test: as above; type: biochemical; conditions: Table 3; purified enantiomers; read-out: CDK2-E (E1/E2)
T1 construct: purchased Millipore

CDK9-CYCLINT1 = biological target: T2, CDK9-CYCLINT1 (Homo sapiens, UniProt P50750); test: as above; type: biochemical
T2 construct: purchased Carna
T2 sequence (P50750 whole entry): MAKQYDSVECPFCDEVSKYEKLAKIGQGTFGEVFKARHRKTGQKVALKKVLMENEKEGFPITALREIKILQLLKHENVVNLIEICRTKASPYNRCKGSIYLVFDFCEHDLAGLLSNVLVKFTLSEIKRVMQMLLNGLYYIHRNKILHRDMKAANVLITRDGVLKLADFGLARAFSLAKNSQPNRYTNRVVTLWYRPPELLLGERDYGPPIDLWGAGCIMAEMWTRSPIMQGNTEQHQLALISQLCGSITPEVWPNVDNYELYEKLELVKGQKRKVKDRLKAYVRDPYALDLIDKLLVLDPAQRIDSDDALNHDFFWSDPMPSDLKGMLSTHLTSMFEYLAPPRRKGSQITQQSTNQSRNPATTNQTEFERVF
T2 sequence (O60563 whole entry partner): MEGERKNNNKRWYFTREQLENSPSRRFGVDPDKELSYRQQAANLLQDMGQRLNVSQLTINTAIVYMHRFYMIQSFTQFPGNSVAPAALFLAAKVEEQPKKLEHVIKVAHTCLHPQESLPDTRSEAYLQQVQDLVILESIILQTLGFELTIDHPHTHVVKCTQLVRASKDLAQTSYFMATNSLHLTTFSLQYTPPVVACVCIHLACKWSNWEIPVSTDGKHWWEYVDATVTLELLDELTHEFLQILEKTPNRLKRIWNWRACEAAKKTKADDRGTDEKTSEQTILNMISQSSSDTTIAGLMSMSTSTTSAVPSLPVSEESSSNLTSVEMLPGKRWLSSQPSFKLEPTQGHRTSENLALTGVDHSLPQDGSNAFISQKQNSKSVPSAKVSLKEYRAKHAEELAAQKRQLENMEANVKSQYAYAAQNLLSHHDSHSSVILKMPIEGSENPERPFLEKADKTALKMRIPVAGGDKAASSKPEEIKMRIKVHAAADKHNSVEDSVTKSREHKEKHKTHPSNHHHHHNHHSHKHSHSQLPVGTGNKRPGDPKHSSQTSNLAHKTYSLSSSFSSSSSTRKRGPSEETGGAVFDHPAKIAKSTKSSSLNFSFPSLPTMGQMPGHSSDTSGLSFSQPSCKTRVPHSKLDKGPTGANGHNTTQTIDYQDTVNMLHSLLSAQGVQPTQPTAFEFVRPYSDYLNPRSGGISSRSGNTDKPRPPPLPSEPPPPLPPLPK

all cell lines tested = test: 2D cell proliferation assay, geometric mean over the cell line panel; type: cell-based; conditions: Table 5 lower part; geometric mean over the 8-line panel; read-out: Geomean abs. IC50 value
Experimental: as §1, §4, §5
The overall potency of a compound was determined by the geometric mean IC50/IC70 values of all individual IC50/IC70 values. In the heatmap representation of IC50 and IC70 values, the distribution of the IC50 or IC70 values obtained for a test compound in the individual cell lines is given in relation to the geometric mean IC50 or IC70 value, obtained over all PDX models tested. The individual IC values range from 1/32-fold geometric mean IC (corresponding to very potent compound activity or high tumor sensitivity) to 32-fold geometric mean IC (corresponding to lack of compound activity or tumor resistance). The heatmap presentation, therefore, represents an antiproliferative “fingerprint” profile of a test compound.

CDK6-CYCLIND3 = biological target: T3, CDK6-CYCLIND3 (Homo sapiens, UniProt Q00534); test: CDK inhibition assay (microfluidic LabChip, IC50 format); type: biochemical
T3 construct: purchased Carna
T3 sequence (Q00534 whole entry): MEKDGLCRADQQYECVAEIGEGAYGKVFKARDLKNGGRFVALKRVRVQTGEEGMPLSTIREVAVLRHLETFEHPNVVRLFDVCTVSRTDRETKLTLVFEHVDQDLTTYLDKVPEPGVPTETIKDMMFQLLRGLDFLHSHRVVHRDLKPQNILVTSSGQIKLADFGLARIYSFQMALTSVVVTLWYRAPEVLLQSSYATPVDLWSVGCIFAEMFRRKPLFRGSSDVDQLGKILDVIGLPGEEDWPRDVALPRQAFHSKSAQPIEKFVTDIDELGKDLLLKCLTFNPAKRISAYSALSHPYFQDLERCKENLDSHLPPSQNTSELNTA
T3 sequence (P30281 whole entry partner): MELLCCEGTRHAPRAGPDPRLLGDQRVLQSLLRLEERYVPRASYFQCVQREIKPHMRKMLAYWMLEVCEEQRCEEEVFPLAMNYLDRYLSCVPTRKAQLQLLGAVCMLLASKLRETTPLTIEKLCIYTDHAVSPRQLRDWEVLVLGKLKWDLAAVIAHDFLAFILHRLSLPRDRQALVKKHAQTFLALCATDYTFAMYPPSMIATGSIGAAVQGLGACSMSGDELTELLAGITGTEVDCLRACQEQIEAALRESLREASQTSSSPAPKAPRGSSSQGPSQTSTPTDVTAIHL

CDK2-CYCLINA = biological target: T4, CDK2-CYCLINA (Homo sapiens, UniProt P24941); test: as above; type: biochemical
T4 construct: purchased Millipore

[1] = Pharmacokinetics after oral administration; type: in vivo; conditions: rat, plasma, rats; for bioavailability: oral 100 mg/kg versus IV 30 mg/kg, read-out: BIOAVAILABILITY F; for AUC / Cmax / MRT / half-life: oral administration 100 mg/kg, N = 3
Experimental: (§6) Nonclinical pharmacokinetic (PK) parameters of lead CDK4/6/9 inhibitors were determined in an intravenous (IV) and oral study (p.o.) conducted in rats. Lead compounds were each administered as a single oral dose at 100 mg/kg or by IV bolus via the caudal vein at the dose of 30 mg/kg. Blood samples were collected at 0.25, 0.5, 1, 2, 4, 8, 12, and 24 hours post i.v. administration, and at 1, 2, 4, 8, 24 and 48 hours post oral administration. Plasma was processed for drug concentration analysis using a validated LCMS/MS method, and PK parameters were calculated by using WinNonlin.

[2] = Pharmacokinetics after IV bolus; type: in vivo; conditions: rat, plasma; rats; IV bolus 30 mg/kg; N = 3
Experimental: as §6

CDK7 CyclinH = CDK7 CyclinH (Homo sapiens, UniProt P50613); test: CDK inhibition assay (microfluidic LabChip, IC50 format); type: biochemical; conditions: Table 4a
Chain of CDK7 CyclinH (P50613 whole entry): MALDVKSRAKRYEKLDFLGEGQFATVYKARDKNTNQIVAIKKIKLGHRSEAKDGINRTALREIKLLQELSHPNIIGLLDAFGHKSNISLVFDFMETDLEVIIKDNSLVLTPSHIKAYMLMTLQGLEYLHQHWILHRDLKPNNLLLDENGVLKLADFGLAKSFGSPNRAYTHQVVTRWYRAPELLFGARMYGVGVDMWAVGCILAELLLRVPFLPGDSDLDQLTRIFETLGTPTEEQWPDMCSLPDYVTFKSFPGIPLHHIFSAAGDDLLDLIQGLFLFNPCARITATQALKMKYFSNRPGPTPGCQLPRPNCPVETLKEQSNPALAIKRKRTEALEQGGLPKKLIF
Chain of CDK7 CyclinH (P51946 whole entry partner): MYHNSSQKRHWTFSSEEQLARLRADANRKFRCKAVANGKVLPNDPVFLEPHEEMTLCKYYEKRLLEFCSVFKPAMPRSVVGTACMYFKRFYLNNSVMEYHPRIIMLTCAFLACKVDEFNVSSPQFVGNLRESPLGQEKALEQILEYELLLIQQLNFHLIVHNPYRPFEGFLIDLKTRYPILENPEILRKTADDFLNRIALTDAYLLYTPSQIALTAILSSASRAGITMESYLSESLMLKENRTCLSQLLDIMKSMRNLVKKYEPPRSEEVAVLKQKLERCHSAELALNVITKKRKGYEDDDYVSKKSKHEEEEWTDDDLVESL
Chain of CDK7 CyclinH (P51948 whole entry partner): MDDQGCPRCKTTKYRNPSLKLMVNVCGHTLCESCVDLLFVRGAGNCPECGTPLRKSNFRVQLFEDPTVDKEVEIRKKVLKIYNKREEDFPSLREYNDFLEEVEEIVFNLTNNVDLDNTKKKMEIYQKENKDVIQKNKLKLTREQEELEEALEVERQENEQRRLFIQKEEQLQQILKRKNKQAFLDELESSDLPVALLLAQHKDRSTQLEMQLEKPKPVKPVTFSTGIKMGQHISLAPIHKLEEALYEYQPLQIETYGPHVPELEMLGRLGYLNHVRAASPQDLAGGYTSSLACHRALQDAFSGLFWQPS

[3] = CDK4 (E1/E2), Table 3, purified enantiomers
[4] = Table 3, purified enantiomers, read-out: CDK9-T (E1/E2)
[5] = Table 3, purified enantiomers, read-out: CDK6 (E1/E2)
[6] = Table 3, purified enantiomers, read-out: CDK2-A (E1/E2)
[7] = CDK4 CyclinD1 IC50, Table 4a, a second value in parentheses for some compounds
[8] = Table 4a, read-out: CDK9 CyclinT1 IC50
[9] = Table 4a, read-out: CDK6 CyclinD3 IC50
[10] = Table 4a, read-out: CDK2 CyclinA IC50

IC50 (MAXFLB MCF7 (ER+)) [nM] | IC50 (LEXFAL MOLT-4) [nM] | IC50 (LXFL NCl-H1299) [nM] | IC50 (LEXFAM MV4-11) [nM] | IC50 (MAXFTN MDA-MB-231 (ER−)) [nM] | IC50 (LXFA A549) [nM] | IC50 (CDK4-CYCLIND1; [3]) [nM] | IC50 (CDK2-CYCLINE) [nM] | IC50 (CDK9-CYCLINT1; [4]) [nM] | IC50 (CDK6-CYCLIND3; [5]) [nM] | IC50 (CDK2-CYCLINA; [6]) [nM] | bioavailability [1] [%] | AUC [1] [ng·h/mL] | Cmax [1] [ng/mL] | MRT [1] [h] | half-life [1] [min] | Cmax [2] [ng/mL] | Structure (SMILES) | IC50 (MEXF WM-266-4) [nM] | IC50 (MAXFTN ZR-75-1 (ER+)) [µM] | IC50 (all cell lines tested) [nM] | further results
80 | 101 | 187 | ≤ 10 | 150 | 338 | 0.78 | 62.4 | 4.37 | 1.29 | 29.1 | – | – | – | – | – | – | O=C1NCC[C@@]12Cc1cnc(Nc3ccc(N4CCNCC4)c(F)c3)nc1N(C1CCCC1)C2=O [Example D50, (S)-8-cyclopentyl-2-((3-fluoro-4-(piperazin-1-yl)phenyl)amino)-5,8-dihydro-7H-spiro[pyrido[2,3-d]pyrimidine-6,3′-pyrrolidine]-2′,7-dione] | 46 | 23.3 | 173 | –
122 | – | 151 | ≤ 10 | 318 | 257 | 0.904 | 101 | 5.75 | 1.94 | 53.1 | 43.9 | 37700 | 4350 | 5.48 | 426 | 6360 | CN1CCN(c2ccc(Nc3ncc4c(n3)N(C3CCCC3)C(=O)[C@]3(CCNC3=O)C4)cc2F)CC1 [Example D52, (S)-8-cyclopentyl-2-((3-fluoro-4-(4-methylpiperazin-1-yl)phenyl)amino)-5,8-dihydro-7H-spiro[pyrido[2,3-d]pyrimidine-6,3′-pyrrolidine]-2′,7-dione] | 509 | 0.925 | 184 | clearance [2]: 19.3 mL/min/kg; half-life [2]: 267 min
188 | – | 212 | 10 | – | 1400 | 0.822 | 106 | – | 1.65 | 45.6 | – | – | – | – | – | – | CC(C)N1CCN(c2ccc(Nc3ncc4c(n3)N(C3CCCC3)C(=O)[C@]3(CCNC3=O)C4)cc2F)CC1 [Example D54, (S)-8-cyclopentyl-2-((3-fluoro-4-(4-isopropylpiperazin-1-yl)phenyl)amino)-5,8-dihydro-7H-spiro[pyrido[2,3-d]pyrimidine-6,3′-pyrrolidine]-2′,7-dione] | 331 | 10.3 | 352 | –
88 | 84 | 108 | ≤ 10 | 300 | 148 | – | – | – | – | – | 43.8 | 21500 | 4470 | 4.37 | 336 | 7730 | CC(C)N1CCN(c2ccc(Nc3ncc4c(n3)N(C3CCCC3)C(=O)[C@]3(CCNC3=O)C4)cc2)CC1 [Example D145, (S)-8-cyclopentyl-2-((4-(4-isopropylpiperazin-1-yl)phenyl)amino)-5,8-dihydro-7H-spiro[pyrido[2,3-d]pyrimidine-6,3′-pyrrolidine]-2′,7-dione] | 47 | ≥ 100 | 189 | IC50 (CDK7 CyclinH): 153 nM; IC50 (CDK4-CYCLIND1; [7]): 0.784 nM; IC50 (CDK9-CYCLINT1; [8]): 5.02 nM; clearance [2]: 35.2 mL/min/kg; half-life [2]: 116 min; IC50 (CDK6-CYCLIND3; [9]): 1.65 nM; IC50 (CDK2-CYCLINA; [10]): 21.7 nM
62 | 97 | 229 | 28 | 172 | 440 | – | – | – | – | – | – | – | – | – | – | – | CN(C)[C@@H]1CCN(c2ccc(Nc3ncc4c(n3)N(C3CCCC3)C(=O)[C@]3(CCNC3=O)C4)cc2F)C1 [Example D176, (S)-8-cyclopentyl-2-((4-((R)-3-(dimethylamino)pyrrolidin-1-yl)-3-fluorophenyl)amino)-5,8-dihydro-7H-spiro[pyrido[2,3-d]pyrimidine-6,3′-pyrrolidine]-2′,7-dione] | 548 | 0.648 | 179 | IC50 (CDK7 CyclinH): 126 nM; IC50 (CDK4-CYCLIND1; [7]): 1.12 nM and 0.64 nM; IC50 (CDK9-CYCLINT1; [8]): 2.73 nM; IC50 (CDK6-CYCLIND3; [9]): 2.07 nM; IC50 (CDK2-CYCLINA; [10]): 33.3 nM

Source: patent US20230048132A1, “CYCLIN-DEPENDENT KINASE INHIBITORS” (SPV THERAPEUTICS INC., priority 2018, published 2023)
